Results as given in PubChem BioAssay AID2060905 (Molecular Pharmacology Branch, DTP, NCI, 2025).

System: 282377-053-R-J1-PDC complex spheroid viability
Experiment: Anticancer human tumor 282377-053-R-J1-PDC patient-derived colon adenocarcinoma cell line growth inhibition [RAS]
Details: for IC50: curve of first compound; for viability, T/C: stronger effect = lower value
Excerpt: RAS pathway inhibitors in Combinations in Complex Spheroids
A high-throughput screen of multi-cell type tumor spheroids was designed to identify active combinations of RAS pathway inhibitors and targeted small molecules. Complex spheroids include a stromal component modeled by human endothelial cells (HUVEC) and fibroblasts modeled by human mesenchymal stem cells (MSCs). The concentration ranges selected for each drug and investigational agent were based upon clinically achievable concentrations if the clinical Cmax of the agent was known.
Compounds. The drugs and investigational agents: abemaciclib (NSC768073), cobimetinib (NSC768068), divarasib (GDC6063, NSC841802), docetaxel (NSC628503), GDC-1971 (RLY-1971, NSC841576), gemcitabine (NSC613327), inavolisib (NSC800729), ipatasertib (NSC767898), KB-0742 (NSC834161), MRTX-1133 (NSC836407), osimertinib (NSC779217), RMC-4630 (NSC839698), RMC-6236 (NSC851965), RMC-6291 (NSC852671), Ro-3306 (NSC812927), sapanisertib (NSC764658), SN-38 (NSC673596), staurosporine (NSC755774), SY5609 (NSC837396), and tovorafenib (DAY101, NSC766906), were obtained from the National Cancer Institute (NCI) Developmental Therapeutics Program Chemical Repository. The FDA-approved anticancer drug set is available from the NCI Developmental Therapeutics Program. […] The stock solutions were prepared in dimethyl sulfoxide (DMSO, Sigma-Aldrich, St. Louis, MO, cat. D2650) at 800-fold the tested concentration and stored at -70 degrees C prior to their use. All drugs and investigational agents were tested over a range starting from a high concentration at or near the clinical Cmax and decreasing in half-log increments. If the clinical Cmax for an agent had not been determined, the highest concentration tested was 10 microM.
Cell Culture. All cells were maintained in an incubator at 37 degrees C and 5% CO2 with 95% humidity. The PDC lines were cultured according to standard operating procedures established by the NCI PDMR. All PDCs were thawed and cultured in Matrigel-coated flasks prepared with a working solution of 1X Ham's F-12 nutrient mix, without supplementation (Invitrogen, Waltham, MA, cat. 11765054), 100 U/mL penicillin-streptomycin (Invitrogen, cat. 15140122), and 2.5% Matrigel (Corning Inc., Corning, NY, cat. 354248) for the first three passages. The 362531-283-R-J2-PDC and 782815-120-R-J1-PDC lines were cultured in 6C/Colon 1B media, which includes advanced DMEM/F-12 (Thermo Fisher Scientific, cat. 12634028), 10 mM HEPES (Thermo Fisher Scientific, cat. 15630080), 1X GlutaMAX supplement (Thermo Fisher Scientific, cat. 35050061), 0.1 mg/mL primocin (InvivoGen, San Diego, CA, cat. ant-pm-2), 10% defined fetal bovine serum, heat inactivated (HyClone Laboratories Inc., Logan, UT, cat. SH30070.03HI), 50% L-WRN conditioned media (ATCC, cat. CRL-3276), 1.25 mM N-Acetyl-L-cysteine (Sigma-Aldrich, cat. A9165), 10 mM nicotinamide (Sigma-Aldrich, cat. N0636), 1X B-27 supplement (Thermo Fisher Scientific, cat. 17504044), 1X N-2 supplement (Thermo Fisher Scientific, cat. 17502048), 50 ng/mL human EGF (Thermo Fisher Scientific, cat. PHG0311), and 10 microM Y-27632 dihydrochloride (Tocris Bioscience, cat. 1254). The K12877-001-R-J1-PDC line was cultured in 6I media, which includes all 6C/Colon 1B media plus 10 ng/mL human FGF-10 (PeproTech, cat. 100-26), 1 ng/mL human FGF-2 (PeproTech, cat. 100-18B), 1 µM prostaglandin E2 (Tocris Bioscience, cat. 2296), […] hydrocortisone (Sigma-Aldrich, cat. H4001), and […] bovine insulin (Sigma-Aldrich, cat. I6634). The K86415-001-R-J1-PDC line was cultured in 6D media, which includes all 6C/Colon 1B media components minus the L-WRN conditioned media. The 485176-168-R4-J1-PDC was cultured in PANC media, which includes all 6C/Colon 1B media plus 100 ng/mL human FGF-10 (PeproTech, cat. 100-26), 500 nM SB-431542 (Selleckchem, cat. S1067), and 10 nM gastrin (Tocris Bioscience, cat. 3006). […]

[1] = second compound 0.0316 µM, first compound 0.0316 µM
[2] = second compound 0.0316 µM, first compound 0.1 µM
[3] = second compound 0.0316 µM, first compound 0.316 µM
[4] = second compound 0.0316 µM, first compound 1 µM
[5] = second compound 0.0316 µM, first compound 3.16 µM
[6] = second compound 0.0316 µM, first compound 10 µM
[7] = second compound 0.1 µM, first compound 0.0316 µM
[8] = second compound 0.1 µM, first compound 0.1 µM
[9] = second compound 0.1 µM, first compound 0.316 µM
[10] = second compound 0.1 µM, first compound 1 µM
[11] = second compound 0.1 µM, first compound 3.16 µM
[12] = second compound 0.1 µM, first compound 10 µM
[13] = second compound 0.316 µM, first compound 0.0316 µM
[14] = second compound 0.316 µM, first compound 0.1 µM
[15] = second compound 0.316 µM, first compound 0.316 µM
[16] = second compound 0.316 µM, first compound 1 µM
[17] = second compound 0.316 µM, first compound 3.16 µM
[18] = second compound 0.316 µM, first compound 10 µM
[19] = second compound 1 µM, first compound 0.0316 µM
[20] = second compound 1 µM, first compound 0.1 µM
[21] = second compound 1 µM, first compound 0.316 µM
[22] = second compound 1 µM, first compound 1 µM
[23] = second compound 1 µM, first compound 3.16 µM
[24] = second compound 1 µM, first compound 10 µM
[25] = second compound 3.16 µM, first compound 0.0316 µM
[26] = second compound 3.16 µM, first compound 0.1 µM
[27] = second compound 3.16 µM, first compound 0.316 µM
[28] = second compound 3.16 µM, first compound 1 µM
[29] = second compound 3.16 µM, first compound 3.16 µM
[30] = second compound 3.16 µM, first compound 10 µM
[31] = second compound 10 µM, first compound 0.0316 µM
[32] = second compound 10 µM, first compound 0.1 µM
[33] = second compound 10 µM, first compound 0.316 µM
[34] = second compound 10 µM, first compound 1 µM
[35] = second compound 10 µM, first compound 3.16 µM
[36] = second compound 10 µM, first compound 10 µM
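Also: spheroids exposed to agents for seven days before readout.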
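For viability, T/C in this document: luminescence viability as percent of DMSO vehicle control wells.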

Question: What does the source list for Cc1nc(N2CCC3(CC2)COC(C)C3N)c(CO)nc1Sc1ccnc(N)c1Cl (centres undefined) + C#Cc1c(F)ccc2cc(O)cc(-c3ncc4c(N5CC6CCC(C5)N6)nc(OCC56CCCN5CC(F)C6)nc4c3F)c12?
Answer: IC50 (second compound 0.0316 µM): > 10 µM; IC50 (second compound 0.1 µM): > 10 µM; IC50 (second compound 0.316 µM): > 10 µM; IC50 (second compound 1 µM): > 10 µM; IC50 (second compound 3.16 µM): > 10 µM; IC50 (second compound 10 µM): > 10 µM; viability, T/C [1]: 101%; viability, T/C [2]: 120%; viability, T/C [3]: 114%; viability, T/C [4]: 113%; viability, T/C [5]: 95.9%; viability, T/C [6]: 87.3%; viability, T/C [7]: 109%; viability, T/C [8]: 107%; viability, T/C [9]: 88.7%; viability, T/C [10]: 89.8%; viability, T/C [11]: 99.5%; viability, T/C [12]: 89.4%; viability, T/C [13]: 107%; viability, T/C [14]: 114%; viability, T/C [15]: 95%; viability, T/C [16]: 100%; viability, T/C [17]: 114%; viability, T/C [18]: 101%; viability, T/C [19]: 116%; viability, T/C [20]: 110%; viability, T/C [21]: 110%; viability, T/C [22]: 86%; viability, T/C [23]: 98%; viability, T/C [24]: 85%; viability, T/C [25]: 99.3%; viability, T/C [26]: 103%; viability, T/C [27]: 89.8%; viability, T/C [28]: 111%; viability, T/C [29]: 98.2%; viability, T/C [30]: 120%; viability, T/C [31]: 110%; viability, T/C [32]: 116%; viability, T/C [33]: 114%; viability, T/C [34]: 98.5%; viability, T/C [35]: 85.8%; viability, T/C [36]: 131%

Question: Which IC50 (second compound 0.0316 µM) does the source give for CC(Nc1ccc2c(c1)OCCn1cc(N3C(=O)OCC3C(F)F)nc1-2)C(N)=O (centres undefined) + C#Cc1c(F)ccc2cc(O)cc(-c3ncc4c(N5CC6CCC(C5)N6)nc(OCC56CCCN5CC(F)C6)nc4c3F)c12 here?
Answer: Its IC50 is over 10 µM.

Question: And the IC50 (second compound 0.1 µM)?
Answer: The IC50 was over 10 µM.

Question: What about the IC50 (second compound 0.316 µM) of the same compound?
Answer: Its IC50 is over 10 µM.

Question: What about the IC50 (second compound 1 µM) of the same compound?
Answer: Its IC50 is over 10 µM.

Question: What about the IC50 (second compound 3.16 µM) of the same compound?
Answer: The IC50 was over 10 µM.

Question: And the IC50 (second compound 10 µM)?
Answer: The IC50 was over 10 µM.

Question: And the viability, T/C [1]?
Answer: The viability, T/C was 109%.

Question: What about the viability, T/C [2] of the same compound?
Answer: The viability, T/C was 84.6%.

Question: What about the viability, T/C [3] of the same compound?
Answer: The viability, T/C was 88.8%.

Question: What about the viability, T/C [4] of the same compound?
Answer: The viability, T/C was 96%.

Question: And the viability, T/C [5]?
Answer: The viability, T/C was 90.2%.

Question: And the viability, T/C [6]?
Answer: Its viability, T/C is 72.8%.

Question: And the viability, T/C [7]?
Answer: Its viability, T/C is 101%.

Question: And the viability, T/C [8]?
Answer: Its viability, T/C is 85.7%.

Question: What about the viability, T/C [9] of the same compound?
Answer: The viability, T/C was 93.1%.

Question: And the viability, T/C [10]?
Answer: The viability, T/C was 97.3%.

Question: What about the viability, T/C [11] of the same compound?
Answer: The viability, T/C was 91.1%.

Question: And the viability, T/C [12]?
Answer: Its viability, T/C is 72.6%.

Question: And the viability, T/C [13]?
Answer: The viability, T/C was 131%.

Question: And the viability, T/C [14]?
Answer: Its viability, T/C is 92.7%.

Question: What about the viability, T/C [15] of the same compound?
Answer: The viability, T/C was 78.2%.

Question: And the viability, T/C [16]?
Answer: Its viability, T/C is 104%.

Question: What about the viability, T/C [17] of the same compound?
Answer: Its viability, T/C is 74.7%.

Question: And the viability, T/C [18]?
Answer: The viability, T/C was 96.1%.

Question: And the viability, T/C [19]?
Answer: Its viability, T/C is 95.7%.

Question: What about the viability, T/C [20] of the same compound?
Answer: The viability, T/C was 97.8%.

Question: And the viability, T/C [21]?
Answer: Its viability, T/C is 98.7%.

Question: And the viability, T/C [22]?
Answer: The viability, T/C was 100%.

Question: What about the viability, T/C [23] of the same compound?
Answer: Its viability, T/C is 88.5%.

Question: What about the viability, T/C [24] of the same compound?
Answer: The viability, T/C was 93.3%.

Question: And the viability, T/C [25]?
Answer: Its viability, T/C is 90.5%.

Question: And the viability, T/C [26]?
Answer: Its viability, T/C is 88.8%.

Question: What about the viability, T/C [27] of the same compound?
Answer: The viability, T/C was 88.3%.

Question: What about the viability, T/C [28] of the same compound?
Answer: The viability, T/C was 77.5%.

Question: And the viability, T/C [29]?
Answer: The viability, T/C was 76.6%.

Question: And the viability, T/C [30]?
Answer: The viability, T/C was 76.9%.

Question: What about the viability, T/C [31] of the same compound?
Answer: The viability, T/C was 102%.

Question: And the viability, T/C [32]?
Answer: Its viability, T/C is 101%.

Question: What about the viability, T/C [33] of the same compound?
Answer: Its viability, T/C is 97%.

Question: And the viability, T/C [34]?
Answer: The viability, T/C was 81.2%.

Question: And the viability, T/C [35]?
Answer: The viability, T/C was 90%.

Question: What about the viability, T/C [36] of the same compound?
Answer: The viability, T/C was 78.5%.
